Experimental findings from patent US5693330A, “Skin care compositions containing melinamide and a retinoid” (priority 1996, dated 1997) are described below.

Structures are written as SMILES. Where two headings read alike, the source gives them in different places.

The subject of the assay is Human keratinocytes. Nature of the assay: 3H-thymidine incorporation by cultured keratinocytes (keratinocyte proliferation). The assay is classed as cell-based. To be noted: for activity at 0.25 µM / activity at 0.1 µM / activity at 0.025 µM / activation at 0.25 µM / activation at 0.025 µM: Homo sapiens, Keratinocyte; for activity at 0.25 µM / activity at 0.1 µM / activity at 0.025 µM: read-out: mean Thymidine incorp/μg protein (% control); for effect on keratinocyte proliferation (summary): Examples 1-3. As for the experimental part: Human keratinocytes, isolated from neonatal foreskin by trypsin treatment were grown in Dulbecco Modification Eagle (DME) Hams F12 (1:1) medium/10% fetal calf serum in the presence of irradiated 3T3 mouse fibroblasts for establishing dividing keratinocyte colonies. Cells were grown under the above condition until their second passage and kept frozen for future use. Frozen second passage keratinocytes were thawed and plated into the above medium and grown for five days before they were switched to a serum-free MCDB 153-based medium keratinocyte growth medium (KGM) from Clonetics Corporation, San Diego, Calif., containing 0.15 mM Ca, or keratinocyte serum-free media (KSFM) from GIBCO containing 0.09 mM Ca). On day 7, when the cells were 80-90% confluent, they were trypsinized and plated in the serum-free medium for the various experiments.
The incorporation of ^3 H-thymidine by cultured keratinocytes was used as an assay of keratinocyte proliferation. Thymidine is one of four deoxynucleosides which are the monomeric units of DNA, the universal library of genetic information in the animal kingdom. Prior to cell division of a somatic cell such as a keratinocyte, the complete genome of the cell undergoing cell division is replicated. This involves large scale DNA synthesis by the cell and enables both daughter cells to receive identical copies of the genetic material. When ^3 H-thymidine is included in the culture media of keratinocytes which are synthesizing DNA in preparation for cell division then the labelled nucleoside is incorporated into the newly synthesized DNA. The extent of incorporation of ^3 H-thymidine into a population of cells is proportional to the rate of DNA synthesis by this population of cells and therefore an indication of their cellular proliferation.
Keratinocytes (that were cultured as described above) were plated in 24 well plates at a density of 40,000 cells per well in 1 ml media. After incubation for four days or until the cells were 60-70% confluent, the media was changed. Test compounds were added (in triplicate) to the wells 24 hours after the media change, and four hours later 1 μCl ^3 H-Thymidine in 50 μl media was added per well. Cells were incubated for a further 24 hours. Media was removed from the cells, 10% ice cold trichloroacetic acid (TCA) added and plates were incubated on ice for 30 minutes. Cells were washed five times with 5% TCA and allowed to dissolve in 500 μl […] NaOH for at least one hour (usually overnight). The preparations were neutralized with 0.1M HCl; 50 μl of the cell preparation was used to determine total protein content. Disintegrations per minute (DPM) from ^3 H labelling of DNA was determined by liquid scintillation counting of […] of the cell preparation. Thymidine incorporation results were expressed as DPM/μg protein.
A. The effect on incorporation of ^3 H-thymidine μg soluble protein 24 hours after the addition of retinoic acid or retinol at various concentrations was examined.
The effect on incorporation of ^3 H-thymidine/μg soluble protein 24 hours after addition of the test compounds was examined and the combined results of three independent experiments were normalized to their respective ethanol controls.
The effect of melinamide and the retinyl ester (retinyl palmitate) on incorporation of ^3 H-thymidine was examined.

[1] abbreviates: Example 2, 2.5 × 10^-8 M, n = 3, 24 hours, three experiments normalized to ethanol controls.
Where [2] appears, read: read-out: increase in keratinocyte thymidine incorporation over the ethanol control.

Regarding `CCCCCCCCCCCCCCCC(=O)OC/C=C(C)/C=C/C=C(C)/C=C/C1=C(C)CCCC1(C)C` [Retinyl palmitate, retinyl palmitate], the “mean Thymidine incorp/μg protein ± s.d” value (Example 3, 2.5 × 10^-7 M) was found to be 5746 ± 113 DPM/μg protein. The activity at 0.25 µM (24 h, Example 3, 2.5 × 10^-7 M) is 104%.

Regarding `CCCCC/C=C\C/C=C\CCCCCCCC(=O)NC(C)c1ccccc1` (stereo not shown) [Melinamide, melinamide], the “effect on keratinocyte proliferation (summary)” value (“effect … (summary)” for short) is on record as “little or no benefit on its own”. Further, the “effect on keratinocyte proliferation on its own” value (Example 2, 10^-7 M) is “no effect”. Also, the “mean Thymidine incorp/μg protein ± s.d” value (Example 2, 10^-7 M, n = 3, 24 hours, three experiments normalized to ethanol controls) turned out to be 4695 ± 324 DPM/μg protein. Besides, under “Example 3, 10^-7 M”, the “effect on keratinocyte proliferation on its own” value was “no effect” and the “mean Thymidine incorp/μg protein ± s.d” value was 4635 ± 608 DPM/μg protein. Also, the activity at 0.1 µM (24 h, Example 2, 10^-7 M, n = 3, 24 hours) was 91%. Also, the activity at 0.1 µM (24 h, Example 3, 10^-7 M) worked out at 84%.

As for `CC1=C(/C=C/C(C)=C/C=C/C(C)=C/CO)C(C)(C)CCC1` [ROH, Retinol], the “effect … (summary)” value is “completely ineffective at increasing keratinocyte proliferation”. Further, the “mean Thymidine incorp/μg protein ± s.d” value under setting [1] is 3956 ± 1303 DPM/μg protein. Further, the activity at 0.025 µM (24 h, Example 2, 2.5 × 10^-8 M, n = 3, 24 hours) turned out to be 76%.

Take `CC1=C(/C=C/C(C)=C/C=C/C(C)=C/C(=O)O)C(C)(C)CCC1` [RA, Retinoic acid]: the “effect … (summary)” value was “increased keratinocyte proliferation”. Besides, where the note is “Example 1, 2.5×10^-7 M, 2.5×10^-8 and 2.5×10^-9 M”, the “keratinocyte proliferation over both the ethanol control and each of the retinol treatments” value is recorded as “significantly increased keratinocyte proliferation”. Besides, the “mean Thymidine incorp/μg protein ± s.d” value under setting [1] is listed as 6711 ± 402 DPM/μg protein. For the same compound, the “mean Thymidine incorp/μg protein ± s.d” value (Example 3, 2.5 × 10^-7 M) is 7795 ± 370 DPM/μg protein. For the same compound, the activity at 0.25 µM (24 h, Example 3, 2.5 × 10^-7 M) worked out at 142%. Moreover, the activation at 0.25 µM (read-out: increase in keratinocyte thymidine incorporation over the 2.5×10^-7 M retinyl palmitate treatment) amounted to 38%. The activation at 0.025 µM (read-out: increase in keratinocyte thymidine incorporation over the 2.5×10^-8 M retinol treatment) turned out to be 30%. Under setting [2], the activation at 0.025 µM came out at 30% and the activation at 0.25 µM came to 38%. For the same compound, the activity at 0.025 µM (Example 2, 2.5 × 10^-8 M, n = 3, 24 hours) was found to be 130%.
